{"source": "patent US5258300A", "about": "“Method of inducing lysine overproduction in plants” (Molecular Genetics Research and Development Limited …, priority 1988, dated 1993)", "key": {"[1]": {"test_system": "seedlings of self-pollinated 101", "assay": "AEC resistance in seedlings, progeny of 101", "format": "in vivo, Nicotiana tabacum SR1", "conditions": "Nicotiana tabacum, 336 h, two weeks postplating, read-out: Avg. Root Length", "description": "(§1) Tobacco plant 327 flowered and was allowed to self-pollinate and produce seed. Mature, dry seed was collected, surface-sterilized with 10% bleach, and rinsed well with sterile water. Seeds were plated (50 seeds per plate, two plates per treatment) on gridded germination plates (1/4 MS salts, 2.5 gm/l Gelrite) containing AEC at 0, 1, 10, 30, 100 and 300 μM AEC. Seeds from self-pollinated 101 were treated identically as controls. All seeds germinated in 3-4 days. After 10 days, the number of green seedlings on each plate was counted. After two weeks, the seedlings were gently pulled from the Gelrite and root lengths were measured."}, "[2]": {"test_system": "seedlings of self-pollinated 327", "assay": "AEC resistance in seedlings, progeny of 327", "format": "in vivo, Nicotiana tabacum SR1", "conditions": "Nicotiana tabacum, 336 h, two weeks postplating, read-out: Avg. Root Length", "description": "as §1"}, "[3]": {"test_system": "leaf disks from plant 327", "assay": "Leaf disk AEC screen, dap A+ plant 327", "format": "cell-based, Nicotiana tabacum SR1", "description": "(§2) Plant tissue was initially screened for expression of the introduced dap A gene by evaluating resistance to the lysine analog S(2-aminoethyl)cysteine(AEC). AEC is a potent inhibitor of dihydrodipicolinic acid synthase of plants, but the bacterial DHDPS is much less sensitive to it. Leaf disks were prepared from surface-sterilized leaves as described in the transformation protocol. The disks were placed, (four disks per plate, two plates per treatment) on shooting medium supplemented with 1 mM L-arginine and AEC at 0, 0.1, 0.2 or 0.4 mM. Plates containing shooting medium supplemented with 75 μg/ml kanamycin were included for each plant tested to check the selectable marker. After one week at 26° C. in the light, the individual leaf disks were weighed and the average fresh weight and standard deviation were determined for each treatment."}, "[4]": {"test_system": "leaf disks from water control plant 101", "assay": "Leaf disk AEC screen, water control plant 101", "format": "cell-based, Nicotiana tabacum SR1", "description": "as §2"}, "[5]": {"test_system": "DHDP synthase activity in the leaves of 327", "assay": "DHDP synthase activity (o-aminobenzaldehyde assay) in leaf extracts of 327", "format": "biochemical, Nicotiana tabacum SR1 (E. coli dap A gene)", "conditions": "327 leaf extract", "description": "(§3) Young leaves of 327 and seed-grown NT-SR1 plants were extracted as follows. One to two grams of deribbed leaves were ground at 4° C. in 2 ml extraction buffer (0.1M potassium phosphate (pH 7.5 at 4° C.), 2 mM EDTA, 1 mM β-mercaptoethanol, 10 mM sodium pyruvate) in the presence of 0.14 gm polyvinylpyrrolidone per gram of tissue. The extract was filtered through Miracloth (Calbiochem) and then centrifuged for 10 minutes at 8000×g (4° C.). The supernatant was slowly brought to 40% saturation by adding finely ground solid ammonium sulfate at 4° C. with gentle stirring. The precipitate was removed by centrifugation. The supernatant was brought to 66% ammonium sulfate saturation and the 40-66% precipitate was collected by centrifugation as before. The pellet was resuspended in column buffer (50 mM Tris-HCl (pH 7.5 at 4° C.), 1 mM EDTA, 10 mM sodium pyruvate, 10% glycerol) and passed through a Sephadex G-25 column (Sigma) to desalt.\n(§4) Protein concentrations were determined by the dye-binding method of Bradford (REF) using bovine serum albumin fraction V powder in distilled water as the standard.\n(§5) Dihydrodipicolinic acid synthase activity was monitored using the o-aminobenzaldehyde (ABA) assay (Yugari et al., J. Biol. Chem., 240, 4710-4716 (1965)). […] The pink color was allowed to develop for one hour at 25° C. and then the optical density was measured at 520 nm."}, "[6]": {"molecular_target": "T1, DHDP synthase activity in NT-SR1 leaves (Nicotiana tabacum, UniProt Q42948)", "T1 construct": "Young leaves of 327 and seed-grown NT-SR1 plants were extracted as follows; from tissue; host or cells: young leaves of seed-grown NT-SR1 plants, 40-66% ammonium sulfate fraction of the leaf extract", "T1 sequence (Q42948 34-359)": "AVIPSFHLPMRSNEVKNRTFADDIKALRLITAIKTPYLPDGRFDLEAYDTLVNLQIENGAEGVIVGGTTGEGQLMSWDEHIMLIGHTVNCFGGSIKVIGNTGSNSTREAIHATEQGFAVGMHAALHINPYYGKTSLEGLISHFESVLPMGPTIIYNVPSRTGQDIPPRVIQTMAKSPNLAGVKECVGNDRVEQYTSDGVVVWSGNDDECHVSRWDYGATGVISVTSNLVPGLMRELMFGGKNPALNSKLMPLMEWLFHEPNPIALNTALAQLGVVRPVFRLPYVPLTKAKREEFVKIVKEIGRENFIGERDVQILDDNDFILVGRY", "assay": "DHDP synthase activity (o-aminobenzaldehyde assay) in leaf extracts of seed-grown NT-SR1", "format": "biochemical", "conditions": "NT-SR1 leaf extract", "description": "as §3, §4, §5"}, "[7]": {"test_system": "Dihydrodipicolinic acid synthase", "conditions": "in vitro; cited from earlier work"}}, "data": [{"smiles": "NCCSCC(N)C(=O)O", "note": "(stereo not drawn) [AEC, S(2-aminoethyl)cysteine]", "values": [{"measurement": "activity at 1 µM", "setting": "[1]; AEC 1 μM", "result": 46, "unit": "%"}, {"measurement": "activity at 3 µM", "setting": "[1]; AEC 3 μM", "result": 33, "unit": "%"}, {"measurement": "activity at 10 µM", "setting": "[1]; AEC 10 μM", "result": 27, "unit": "%"}, {"measurement": "activity at 30 µM", "setting": "[1]; AEC 30 μM", "result": 18, "unit": "%"}, {"measurement": "activity at 100 µM", "setting": "[1]; AEC 100 μM", "result": 0, "unit": "%"}, {"measurement": "activity at 1 µM", "setting": "[2]; AEC 1 μM", "result": 111, "unit": "%"}, {"measurement": "activity at 3 µM", "setting": "[2]; AEC 3 μM", "result": 87, "unit": "%"}, {"measurement": "activity at 10 µM", "setting": "[2]; AEC 10 μM", "result": 51, "unit": "%"}, {"measurement": "activity at 30 µM", "setting": "[2]; AEC 30 μM", "result": 46, "unit": "%"}, {"measurement": "activity at 100 µM", "setting": "[2]; AEC 100 μM", "result": 21, "unit": "%"}, {"measurement": "activity at 100 µM", "setting": "[3]; Nicotiana tabacum, foliar, 168 h, AEC 0.1 mM, plant 327 leaf disks, after one week, read-out: Fresh Weight", "result": 88, "unit": "%"}, {"measurement": "activity at 200 µM", "setting": "[3]; Nicotiana tabacum, foliar, 168 h, AEC 0.2 mM, plant 327 leaf disks, after one week, read-out: Fresh Weight", "result": 81, "unit": "%"}, {"measurement": "activity at 400 µM", "setting": "[3]; Nicotiana tabacum, foliar, 168 h, AEC 0.4 mM, plant 327 leaf disks, after one week, read-out: Fresh Weight", "result": 71, "unit": "%"}, {"measurement": "Leaf disk growth in the presence of AEC", "setting": "[3]; putative dap A+ plants", "result": "remain green and growing"}, {"measurement": "activity at 100 µM", "setting": "[4]; Nicotiana tabacum, foliar, 168 h, AEC 0.1 mM, plant 101 leaf disks, after one week, read-out: Fresh Weight", "result": 32, "unit": "%"}, {"measurement": "activity at 200 µM", "setting": "[4]; Nicotiana tabacum, foliar, 168 h, AEC 0.2 mM, plant 101 leaf disks, after one week, read-out: Fresh Weight", "result": 15, "unit": "%"}, {"measurement": "activity at 400 µM", "setting": "[4]; Nicotiana tabacum, foliar, 168 h, AEC 0.4 mM, plant 101 leaf disks, after one week, read-out: Fresh Weight", "result": 10, "unit": "%"}, {"measurement": "Leaf disk growth in the presence of AEC", "setting": "[4]; control plants", "result": "strongly inhibited"}, {"measurement": "Leaf disk appearance", "setting": "[4]; control plants, medium containing at least 0.2 mM AEC", "result": "brown and shriveled"}]}, {"smiles": "NCCCC[C@H](N)C(=O)O", "note": "[L-lysine]", "values": [{"measurement": "Inhibition of DHDP synthase activity", "setting": "[5]; 100 μM L-lysine", "result": "completely resistant"}, {"measurement": "Inhibition of DHDP synthase activity", "setting": "[5]; 500 μM L-lysine", "result": 14, "unit": "%"}, {"measurement": "inhibition at 100 µM", "setting": "[6]; 100 μM L-lysine", "result": 87, "unit": "%"}, {"measurement": "Inhibition of DHDP synthase activity", "setting": "[6]; 500 μM L-lysine", "result": "no activity could be detected"}, {"measurement": "Lower sensitivity of E. coli DHDPS to inhibition by lysine compared to the same enzyme from plants", "setting": "[7]", "result": "at least 200 fold"}]}]}
